Measured values reported in US20150004148A1, “METHODS AND COMPOSITIONS FOR INCREASING RNA INTERFERENCE” (DEVGEN N.V., priority 2008, published 2015).

Assays:
Format in all cases: in vivo
[1] = test system: Colorado potato beetle (Leptinotarsa decemlineata) larvae; experiment: Colorado potato beetle (CPB) larvae bioassay on artificial diet, test solution applied topically to the diet
Description: The bioassay was typically performed in an 48-well-plate containing 500 μl of artificial diet per well. Thirty μl of test solution consisting of 5 μl Ld105 (SEQ ID NO 1) dsRNA (starting concentration 10 ng/μl) and 25 μl of dextran sulfate (of varying concentrations in Milli-Q water) was applied topically to the diet and the diet left to dry for about two hours in the laminar flow at room temperature. One 2nd stage CPB larva was placed in each well. Per treatment, 24 insects were tested. The plates were incubated in the insect rearing chamber at 25° C. and ±50% RH, with a photoperiod of 16 hours light/8 hours dark. Mortality was scored over the course of the experiment. The Kaplan-Meier estimator was used to plot the survival curves and the survival curves were compared using the logrank χ^2 test.
In a CPB bioassay (set-up described in Example 1), target Ld105 dsRNA (SEQ ID NO:1) was tested at one quantity (50 ng) in the presence of fucoidan (average Mw±20 kDa; Sigma cat. no. F5631) at different amounts ranging from 50 ng to 50 μg per larva.
In a CPB bioassay (set-up described in Example 1), target Ld105 dsRNA (SEQ ID NO:1) was tested at different amounts ranging from 1 pg to 1 μg in the presence of 50 μg dextran sulfate per larva.
In a CPB bioassay (set-up described in Example 1), target Ld105 dsRNA (SEQ ID NO:1) was tested at one quantity (50 ng) in the presence of heparin (MP Biomedicals cat. no. 194114) at different amounts ranging from 50 ng to 50 μg per larva.
In a CPB bioassay (set-up described in Example 1), target Ld105 dsRNA (SEQ ID NO:1) was tested at one quantity (50 ng per larva) in the presence of 50 μg chondroitin sulfate (Sigma cat. no. C3788) or hyaluronic acid (Sigma cat. no. 53747).
Preparation of the recombinant bacteria is described in the international publication WO 2007/080127 (see pages 55-56).
In one CPB bioassay (set-up described in Example 1), different target dsRNAs (SEQ ID NO:1, 2, 3, 4; Ld105 dsRNA=SEQ ID NO:1, Ld013=SEQ ID NO: 2, Ld009=SEQ ID NO: 3 and Ld248=SEQ ID NO: 4) were tested at one quantity (100 ng) in the presence of dextran sulfate (50 μg).

[2] = test system: Colorado potato beetle (Leptinotarsa decemlineata) larvae; experiment: Alternative CPB bioassay using treated potato leaf discs; details: Example 10; 50 μg dextran sulfate alone on leaf discs
Description: An alternative bioassay was used using potato leaf discs rather than artificial diet as food source for CPB. Discs of approximately 0.9 cm in diameter (or 0.64 cm^2) were cut out off leaves of 4- to 6-week-old potato plants using a suitably sized cork borer. Treated leaf discs were prepared by applying 2 μl of a solution comprising 100 ng target Ld105 dsRNA (SEQ ID NO:1) and 50 μg dextran sulfate on the adaxial leaf surface. The leaf discs were allowed to dry and placed individually in 24 wells of a 48-well multiwell plate. A single second-larval stage CPB was placed into each well and the plate covered with a plastic lid. Twenty-four larvae were tested per treatment. […] After 24 hours, the larvae were transferred to fresh, untreated leaf discs and placed in the chamber for a further 24 hours. This was repeated once after which the CPB larvae were transferred on to artificial diet where they were kept until the end of the bioassay.

[3] = test system: Colorado potato beetle (Leptinotarsa decemlineata) larvae; experiment: CPB sequential feeding assay (priming with dextran sulfate, then dsRNA) on artificial diet; details: Example 11; DS/DS treatment, 50 μg dextran sulfate
Description: In one CPB bioassay, target Ld105 dsRNA (SEQ ID NO:1) was tested at one quantity (1 μg) following a short exposure to dextran sulfate only. The bioassay set-up was similar to that described in Example 1, except that the larvae were first fed diet with topically applied dextran sulfate (DS; 50 μg), or water, for two full days before transferring them to fresh diet with topically applied Ld105 dsRNA, dextran sulfate or water only, for the remainder of the assay.

[4] = test system: nematode Caenorhabditis elegans; experiment: C. elegans soaking assay, counting of life stages; details: Example 13
Description: The effects of dextran sulfate on the RNAi-induced phenotypes of a non-insect species, namely, the nematode Caenorhabditis elegans, were tested in a soaking assay. Wild-type worms were chunked from a stock plate and adults were bleached to obtain a well-staged population. The assay was set up in a V-shaped 96-well plate, with each well containing 20 μl of solution comprising 50 ng/μl target rps-14 dsRNA (SEQ ID NO:6), various concentrations of dextran sulfate (0 mg/ml, 0.25 mg/ml, 0.50 mg/ml and 1 mg/ml) and 50 first-larval stage nematodes. Each treatment was performed in triplicate. The plate containing the worms was incubated at 25° C. for overnight soaking After 17 hours, the worms were transferred to 3.5 cm agar-plates seeded with OP50 E. coli and incubated at 20° C. for a further 2 days. After this growing period, the assay was assessed by counting the different life stages for all treatments.

[5] = Example 6, heparin or dextran sulfate alone, no dsRNA
[6] = 50 ng/μl rps-14 dsRNA, alone or plus 1 mg/ml dextran sulfate, 17 hours soaking, then 2 days growing

In the case of “dextran sulfate [dextran sulfate (±8 kDa)]”, the toxicity to larvae ([1]; Example 1, dextran sulfate (±8 kDa) alone, 50 ng to 50 μg per larva, no dsRNA) is reported as “Very little or no toxicity”, the toxicity to larvae ([1]; Example 4, 50 μg dextran sulfate (±8 kDa) alone) is reported as “Very little or no toxicity” and the toxicity to larvae [1, 5] is reported as “Very little or no toxicity”. For the same substance, the toxicity to larvae [2] was “Very little toxicity”, the toxicity to larvae [3] was “Very little or no toxicity” and the toxicity to nematodes ([4]; dextran sulfate alone (data not shown)) was “No toxicity”.

In the case of “dextran sulfate [dextran sulfate (±1400 kDa)]”, the toxicity to larvae ([1]; Example 5, dextran sulfate (±1400 kDa) alone, 50 ng to 50 μg per larva) is reported as “Very little or no toxicity”.

fucoidan was tested, and the toxicity to larvae ([1]; Example 2, fucoidan alone, 50 ng to 50 μg per larva) was “Very little or no toxicity”.

In the case of heparin [reference compound], the toxicity to larvae [1, 5] is reported as “Very little or no toxicity”.

“rps-14 dsRNA: C. elegans target rps-14 double-stranded RNA, SEQ ID NO:6” was tested, and the “number of L3 stage larvae” value [4, 6] was 11%, the “number of L4 stage larvae” value [4, 6] was 19% and the number of adults [4, 6] was 63%. The “number of dead larvae” value [4, 6] was 7%.
